Experiments:
GST-tagged MDMX = biological target: T1, GST-tagged MDMX (Homo sapiens, UniProt O15151); experiment: HTRF binding assay of GST-tagged MDMX to p53 peptide
T1 sequence (O15151 1-490): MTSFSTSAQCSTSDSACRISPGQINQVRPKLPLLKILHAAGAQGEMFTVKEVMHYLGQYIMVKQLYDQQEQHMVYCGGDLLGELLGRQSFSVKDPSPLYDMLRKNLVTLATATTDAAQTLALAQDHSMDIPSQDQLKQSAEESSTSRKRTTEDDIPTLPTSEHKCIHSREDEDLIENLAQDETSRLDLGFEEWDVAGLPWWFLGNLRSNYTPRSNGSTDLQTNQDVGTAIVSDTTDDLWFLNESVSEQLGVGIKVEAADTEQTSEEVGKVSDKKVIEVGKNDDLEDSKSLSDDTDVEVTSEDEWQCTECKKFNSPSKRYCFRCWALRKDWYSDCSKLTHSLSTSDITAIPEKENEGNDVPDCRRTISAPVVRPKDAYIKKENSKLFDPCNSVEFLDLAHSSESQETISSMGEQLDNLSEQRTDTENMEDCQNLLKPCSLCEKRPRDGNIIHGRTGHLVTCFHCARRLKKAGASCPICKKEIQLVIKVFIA

[1] = biological target: recombinant GST-tagged MDM2 (Homo sapiens, UniProt Q00987); experiment: HTRF assay of interaction between p53 peptide and GST-tagged MDM2; details: inhibition of GST-MDM2 (160 ng/ml) binding to biotinylated p53-peptide
How it was run: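 Compounds were preincubated with 160 ng/ml GST-MDM2 and 90 nM N-terminally biotinylated p53-like peptide (final) in 20 mM TBS, 0.02% BSA, 1 mM DTT for 1 h at 37 °C. Eu-anti-GST antibody and streptavidin-APC were added for 30 min at room temperature; binding read as TR-FRET at 665 and 615 nm.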

Sequence of recombinant GST-tagged MDM2 (Q00987 whole entry): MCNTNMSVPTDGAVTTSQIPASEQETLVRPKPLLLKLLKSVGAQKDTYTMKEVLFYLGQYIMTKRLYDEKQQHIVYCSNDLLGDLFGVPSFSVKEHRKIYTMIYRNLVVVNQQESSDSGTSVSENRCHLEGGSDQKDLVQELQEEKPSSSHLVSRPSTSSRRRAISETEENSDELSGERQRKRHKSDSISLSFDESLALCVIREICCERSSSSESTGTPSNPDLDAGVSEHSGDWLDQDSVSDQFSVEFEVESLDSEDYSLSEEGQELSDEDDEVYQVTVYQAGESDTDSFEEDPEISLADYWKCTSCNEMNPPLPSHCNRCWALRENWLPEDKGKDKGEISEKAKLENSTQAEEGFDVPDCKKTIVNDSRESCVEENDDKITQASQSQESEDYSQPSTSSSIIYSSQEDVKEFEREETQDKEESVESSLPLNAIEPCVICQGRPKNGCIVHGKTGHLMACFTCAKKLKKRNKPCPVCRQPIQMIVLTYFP

For `CCOc1cc(Cl)c(S(C)(=O)=O)cc1C1=N[C@@](C)(c2ccc(Cl)cc2)[C@@](C)(c2ccc(Cl)cc2)N1C(=O)N1CCC(CCS(C)(=O)=O)CC1` [Example 13, [(4S,5R)-2-(4-Chloro-2-ethoxy-5-methanesulfonyl-phenyl)-4,5-bis-(4-chloro-phenyl)-4,5-dimethyl-4,5-dihydro-imidazol-1-yl]-[4-(2-methanesulfonyl-ethyl)-piperidin-1-yl]-methanone], the IC50 (GST-tagged MDMX) was 1370 nM and the IC50 [1] was 6.1 nM.

`CCOc1cc(Cl)c(S(C)(=O)=O)cc1C1=N[C@@](C)(c2ccc(Cl)cc2)[C@@](C)(c2ccc(Cl)cc2)N1C(=O)N1CCN(CC(=O)N(CCOC)CCOC)CC1` [Example 15, 2-{4-[(4S,5R)-2-(4-Chloro-2-ethoxy-5-methanesulfonyl-phenyl)-4,5-bis-(4-chloro-phenyl)-4,5-dimethyl-4,5-dihydro-imidazole-1-carbonyl]-piperazin-1-yl}-N,N-bis-(2-methoxy-ethyl)-acetamide] was tested, and the IC50 (GST-tagged MDMX) was 1140 nM and the IC50 [1] was 5.5 nM.

Work on `CCOc1cc(Cl)c(S(C)(=O)=O)cc1C1=N[C@@](C)(c2ccc(Cl)cc2)[C@@](C)(c2ccc(Cl)cc2)N1C(=O)N1CCC(NC(C)=O)CC1` [Example 36, N-{1-[(4S,5R)-2-(4-Chloro-2-ethoxy-5-methanesulfonyl-phenyl)-4,5-bis-(4-chloro-phenyl)-4,5-dimethyl-4,5-dihydro-imidazole-1-carbonyl]-piperidin-4-yl}-acetamide] yielded an IC50 (GST-tagged MDMX) of 1270 nM and an IC50 [1] of 4.8 nM.

For `CCOc1cc(Cl)c(S(C)(=O)=O)cc1C1=N[C@@](C)(c2ccc(Cl)cc2)[C@@](C)(c2ccc(Cl)cc2)N1C(=O)N1CCC(CC(N)=O)CC1` [Example 39, 2-{1-[(4S,5R)-2-(4-Chloro-2-ethoxy-5-methanesulfonyl-phenyl)-4,5-bis-(4-chloro-phenyl)-4,5-dimethyl-4,5-dihydro-imidazole-1-carbonyl]-piperidin-4-yl}-acetamide], the IC50 (GST-tagged MDMX) was 1030 nM and the IC50 [1] was 6.1 nM.

Compound `CCOc1cc(Cl)c(S(C)(=O)=O)cc1C1=N[C@@](C)(c2ccc(Cl)cc2)[C@@](C)(c2ccc(Cl)cc2)N1C(=O)N1CCN(CC[C@H](O)CO)C(=O)C1` [Example 4, 4-[(4S,5R)-2-(4-Chloro-2-ethoxy-5-methanesulfonyl-phenyl)-4,5-bis-(4-chloro-phenyl)-4,5-dimethyl-4,5-dihydro-imidazole-1-carbonyl]-1-((S)-3,4-dihydroxy-butyl)-piperazin-2-one] has an IC50 (GST-tagged MDMX) of 1730 nM and an IC50 [1] of 5.4 nM.

`CCOc1cc(Cl)c(S(C)(=O)=O)cc1C1=N[C@@](C)(c2ccc(Cl)cc2)[C@@](C)(c2ccc(Cl)cc2)N1C(=O)N1CCN(S(C)(=O)=O)CC1` [Example 7, [(4S,5R)-2-(4-Chloro-2-ethoxy-5-methanesulfonyl-phenyl)-4,5-bis-(4-chloro-phenyl)-4,5-dimethyl-4,5-dihydro-imidazol-1-yl]-(4-methanesulfonyl-piperazin-1-yl)-methanone] was tested, and the IC50 (GST-tagged MDMX) was 2490 nM and the IC50 [1] was 6.3 nM.

In the case of `CCOc1cc(Cl)c(S(C)(=O)=O)cc1C1=N[C@@](C)(c2ccc(Cl)cc2)[C@@](C)(c2ccc(Cl)cc2)N1C(=O)N1CCC(CC(N)=O)CC1` (racemic) [Example 5, 2-{1-[(4S,5R)-2-(4-Chloro-2-ethoxy-5-methanesulfonyl-phenyl)-4,5-bis-(4-chloro-phenyl)-4,5-dimethyl-4,5-dihydro-imidazole-1-carbonyl]-piperidin-4-yl}-acetamide], the IC50 (GST-tagged MDMX) is reported as 3660 nM and the IC50 [1] is reported as 15.3 nM.

With `CCOc1cc(Cl)c(S(C)(=O)=O)cc1C1=N[C@@](C)(c2ccc(Cl)cc2)[C@@](C)(c2ccc(Cl)cc2)N1C(=O)N1CCC(NC(=O)NC(C)C)CC1` [Example 11, 1-{1-[(4S,5R)-2-(4-Chloro-2-ethoxy-5-methanesulfonyl-phenyl)-4,5-bis-(4-chloro-phenyl)-4,5-dimethyl-4,5-dihydro-imidazole-1-carbonyl]-piperidin-4-yl}-3-isopropyl-urea] the IC50 (GST-tagged MDMX) was 1270 nM and the IC50 [1] was 4.5 nM.

Reference: patent US20140148443A1, “Novel Imidazolines as dual inhibitors of MDM2 and MDMX” (priority 2012, published 2014)
